Measurements: patent publication EP4692059A1, “CATIONIC LIPID HAVING DISULFIDE BOND” (Tohoku University, priority 2023, dated 2024)

What was measured:
liver [1] = test: In vivo gene expression, luciferase luminescence in the liver after tail vein administration (Experimental Example 7); settings: BALB/c mouse, mRNA 0.05 mg/kg
Procedure: LNP encapsulating mRNA that expresses luciferase (cationic lipid:DOPC:Chol:DMG-PEG2k = 52.5:7.5:40:1.5 (molar ratio)) was prepared by the method described in [Experimental Example 6], 1.
(§1) The prepared each mRNA-encapsulating LNP dispersion was administered from the tail vein of BALB/c mouse (male, 5-week-old). The dose of mRNA was set to 0.05 mg per 1 kg body weight of the mouse, and the dose of the mRNA-encapsulating LNP dispersion was set to 10 µL per 1 g body weight of the mouse. After 4.5 hr from the administration of the mRNA-encapsulating LNP dispersion, a PBS solution of D-luciferin potassium was administered into the abdominal cavity of the mouse. The dose of D-luciferin potassium was set to 3 mg per mouse, and the dose of the PBS solution of D-luciferin potassium was set to 200 µL per mouse. After 15 min from the administration of the PBS solution of D-luciferin potassium, the mouse was euthanized, and the liver was isolated. The luminescence in the liver was quantified using an in vivo imaging system (IVIS) with an exposure of 10 sec. The amount of luminescence in the liver was quantified by image analysis using Live Imaging software attached to IVIS. The amount of luminescence (photons/sec) was calculated from the acquired image and used as an index of gene expression activity. The cationic lipids used, the luminescence intensity in the liver, and the relative luminescence intensity (= luminescence intensity in the liver when cationic lipid of Example was used/luminescence intensity in the liver when cationic lipid of Comparative Example was used) are shown in Table 9. For example, "3.94E+09" means "3.94×10^9". […]

liver [2] = test: In vivo gene expression, luciferase luminescence in the liver after tail vein administration (Experimental Example 4); settings: BALB/c mouse, mRNA 0.05 mg/kg
Procedure: LNP encapsulating mRNA that expresses luciferase (cationic lipid:DOPC:Chol:DMG-PEG2k = 52.5:7.5:40:1.5 (molar ratio)) was prepared by the method described in [Experimental Example 2], 1.
as §1, with “7-1 to Table 7-3. "E+0a" (a: integer) indicated in Table 7-1 to Table 7-3 means "10^a".” for “9.”

[3] = Measurement of Liposomal pKa (TNS fluorescence, LNP without nucleic acid); settings: cationic lipid:DOPC:Chol = 52.5:7.5:40 (molar ratio) + DMG-PEG2k about 1.5 mol, pH at which the relative fluorescence intensity was 50%
Procedure: Lipid nano particles (LNP) without containing nucleic acid were used for the evaluation of Liposomal pKa.
To the obtained mixture was further added DMG-PEG2k (2 mM ethanol solution) in an amount of about 1.5 mol with respect to the total amount 100 mol of cationic lipid, DOPC, and Chol, and then ethanol was added to prepare an ethanol solution of the lipid (total amount: 360 µL).
An acidic malic acid buffer (20 mM, pH 3.0) (1080 µL) containing NaCl at a final concentration of 30 mM and an ethanol solution (360 µL) of lipid were each weighed in a syringe. Using an ultra high-speed nanomedicament producing apparatus NanoAssmblr (manufactured by Precision NanoSystems), LNP was prepared under the conditions of addition rate of acidic buffer solution: 3 mL/min, addition rate of ethanol solution of lipid: 1 mL/min, and syringe holder temperature: 25°C, and collected in a 15 mL tube. […]
20 mM Citrate buffer, sodium phosphate buffer, and tris HCl buffer, each containing NaCl at a final concentration of 150 mM and adjusted to various pHs within the range of pH 3.0 to 10.0, were prepared. […] The relative fluorescence intensity was calculated as a percentage, with the maximum value of the fluorescence intensity in each LNP being 100% and the minimum value being 0%.

mouse red blood cells = test: Hemolysis activity (membrane fusion ability) at pH 7.4 and 5.5 (Experimental Example 5); assay type: cell-based, ICR mice; settings: physiological pH (7.4); final lipid concentration 100 µM; Fig. 1
Procedure: LNPs encapsulating mRNA that expresses luciferase (cationic lipid:DOPC:Chol:DMG-PEG2k=52.5:7.5:40:1.5 (molar ratio)) were prepared using the method described in [Experimental Example 2] 1. As cationic lipid, the cationic lipid of Comparative Example, compound 9, compound 14, compound 27, compound 33, or compound 42 was used.
The collected blood was immediately mixed with 1.0 µL of heparin solution (5000 U/5 mL). About 9 mL of PBS was added to the blood to make the total volume 10 mL. The mixture was then mixed by inversion and centrifuged (4°C, 400 g, 10 min). The supernatant containing plasma components was removed using a Pasteur pipette. About 9 mL of PBS was added to the blood cell components to make the total volume 10 mL, and the mixture was centrifuged again. A similar washing procedure was repeated 4 times to obtain mouse red blood cells.
2, 4, 6, 8, and 10 µL of mouse red blood cells were weighed and diluted with PBS containing 1 w/v% Triton-X100. The entire diluted solution was transferred to a clear 96-well plate, and the absorbance at 545 nm was measured using a plate reader. A calibration curve was created using these samples, and the point where the absorbance reached 1 was determined as the amount of blood cells to be used in the hemolysis assay. Empty LNP solution was weighed into an Eppendorf tube and diluted with malic acid-PBS buffer (pH 5.5, pH 7.4), followed by addition of mouse red blood cells. The final lipid concentration was 100 µM at pH 7.4 and 33.3 µM at pH 5.5, and the final volume of the solution was 250 µL. Each tube was shaken at 1900 rpm for 15 min. Each sample was centrifuged under centrifugation conditions (4°C, 400 g, 5 min), and 100 µL of the supernatant was transferred to a clear 96-well plate and the absorbance at 545 nm was measured. Untreated red blood cells were used as the negative control. […] The hemolysis activity of each sample was calculated using the following formula: Hemolysis activity (%) = 100×(absorbance of each sample - absorbance of negative control)/(absorbance of positive control - absorbance of negative control).

[4] = Particle size, PdI and zeta potential of mRNA-encapsulating LNPs by dynamic light scattering (Experimental Example 2); assay type: physicochemical; settings: mRNA-encapsulating LNP containing the cationic lipid
Procedure: An acidic buffer solution (total amount: 1080 µL) of nucleic acid was prepared by weighing 7.2 µg of mRNA solution (0.6 mg/mL) in a 5 mL tube and adding acidic malate buffer (20 mM, pH 3.0).
An acidic buffer solution of nucleic acid and an ethanol solution of lipid were each weighed in a syringe.
The particle size, PdI (Polydispersity Index), and zeta potential of the mRNA-encapsulating LNP prepared by the method of the above-mentioned 1 were measured by a dynamic light scattering method (Zetasizer Nano; Malvern).

[5] = liver luminescence relative to cationic lipid of Comparative Example
[6] = dispersion in PBS, dynamic light scattering (Table 5-3)

Liposomal pKa [3]: 6.50
zeta potential (mV) ([4]; dispersion in PBS (Table 5-3)): -4.47 mV
PdI [4, 6]: 0.099
particle size (nm) [4, 6]: 108.70 nm
SMILES: CCCCCCCC/C=C\CCCCCCCC(=O)Oc1ccc(CC(=O)OCCC2CCN(CCSSCCN3CCC(CCOC(=O)Cc4ccc(OC(=O)CCCCCCC/C=C\CCCCCCCC)cc4)CC3)CC2)cc1 [Comparative Example, reference compound]
amount of luminescence (photons/sec) in liver (liver [1]; tail vein, 4.5 hr after administration, LNP cationic lipid:DOPC:Chol:DMG-PEG2k = 52.5:7.5:40:1.5, prepared as in Experimental Example 6): 2.05E+09 photons/sec
relative amount of luminescence (liver [1]; [5]): 1.00
amount of luminescence (photons/sec) in liver (liver [2]; tail vein, 4.5 hr after administration, LNP cationic lipid:DOPC:Chol:DMG-PEG2k = 52.5:7.5:40:1.5, prepared as in Experimental Example 2): 1.52E+09 photons/sec
relative amount of luminescence (liver [2]; [5]): 1.00
hemolysis activity (mouse red blood cells): did not exhibit hemolysis activity
